Results published in US9868715B2 (THE BOARD OF REGENTS OF THE UNIVERSITY OF TEXAS SYSTEMS, priority 2014, dated 2018).

Key:
[1] = system: transformed PSC (human pancreatic stellate cells); assay: PSC proliferation, AlamarBlue Cell Viability Assay; assay type: cell-based; settings: for Inhibitory Effect (%) on PSC proliferation / inhibition at 10 µM: 10 μM; for Inhibitory Effect (%) on PSC proliferation / inhibition at 5 µM / inhibition at 10 µM / inhibition at 20 µM: mean of at least three independent experiments, NE = No effect; for inhibition at 5 µM / inhibition at 10 µM / inhibition at 20 µM: Homo sapiens, read-out: Inhibitory Effect (%) on PSC proliferation; for Antiproliferative effect on PSC, result in words: transformed PSC, AlamarBlue
Method: The calculated lipophilicity (cLogP) and topological polar surface area (tPSA) values of synthesized analogues are listed in Table 1. […] AlamarBlue is a non-toxic reagent that is converted to a highly fluorescent end product by viable cells.
Under an IRB-approved tissue protocol, discarded human resected pancreatic tissue (500 mm^3) was attained fresh from the operating room at the University of Texas Medical Branch. The tissue was minced and plated on a collagen-coated flask (15 μg/mL, Invitrogen) with DMEM (VWR; Radnor, Pa.) supplemented with penicillin 200 U/mL, streptomycin 200 μg/mL, amphotericin B 0.25 μg/mL and gentimicin 50 μg/mL (Invitrogen, Carlsbad Calif.), 10% fetal bovine serum (Lonza, Walkersville, Md.), 1% insulin-transferrin, selenium-ethanolamine (Gibco, Grand Island, N.Y.), and 1% non-essential amino acids (Sigma-Aldrich, St. Louis, Mo.). The human PSC were isolated by the outgrowth method.^41-43 The purity of PSC culture was confirmed by immunohistochemical staining for vimentin, α-smooth muscle actin, glial fibrillar acidic protein, or Oil red O staining. Primary PSC were transformed and immortalized for use in experiments using lentiviral vectors containing SV40 Large T antigen and human telomerase (plasmid #12245 and 12246; Addgene, Cambridge, Mass.). Cultures were maintained in DMEM with 10% FBS, at 37° C. in a humidified 95% O2/5% CO2 atmosphere.
Cell proliferation assay. Transformed PSC (3×10^3) were plated in 96-well plates, in sextuplicate. […] AlamarBlue reagent (10% sample volume, DAL1025) was added to each well per Invitrogen's protocol. Fluorescence was recorded using excitation/emission wavelengths of 544/590 nm and the SpectraMax M2 Microplate Reader (Molecular Devices, Sunnyvale Calif.).
Statistical analysis. Dose-response curves were generated by plotting fluorescence or absorbance versus log (compound concentration). A best-fit curve was created using nonlinear regression, and the IC50 or EC50 determined from the graph (GraphPad Prism 5; GraphPad Software Inc., La Jolla, Calif.). To analyze continuos variables, unpaired student t-tests and one-way ANOVA with Tukey-Kramer multiple comparisons post-test (GraphPad Prism 5). Significance was set at p<0.05.

[2] = target: T1, human CBS (cystathionine-β-synthase) (Homo sapiens, UniProt P35520); assay: H2S production by recombinant CBS; assay type: biochemical; settings: 100 μM compound; H2S production as % of control (100%)
T1 construct: GST (N); made in house; host or cells: E. coli BL21(DE3) Codon Plus
T1 sequence (P35520 1-551): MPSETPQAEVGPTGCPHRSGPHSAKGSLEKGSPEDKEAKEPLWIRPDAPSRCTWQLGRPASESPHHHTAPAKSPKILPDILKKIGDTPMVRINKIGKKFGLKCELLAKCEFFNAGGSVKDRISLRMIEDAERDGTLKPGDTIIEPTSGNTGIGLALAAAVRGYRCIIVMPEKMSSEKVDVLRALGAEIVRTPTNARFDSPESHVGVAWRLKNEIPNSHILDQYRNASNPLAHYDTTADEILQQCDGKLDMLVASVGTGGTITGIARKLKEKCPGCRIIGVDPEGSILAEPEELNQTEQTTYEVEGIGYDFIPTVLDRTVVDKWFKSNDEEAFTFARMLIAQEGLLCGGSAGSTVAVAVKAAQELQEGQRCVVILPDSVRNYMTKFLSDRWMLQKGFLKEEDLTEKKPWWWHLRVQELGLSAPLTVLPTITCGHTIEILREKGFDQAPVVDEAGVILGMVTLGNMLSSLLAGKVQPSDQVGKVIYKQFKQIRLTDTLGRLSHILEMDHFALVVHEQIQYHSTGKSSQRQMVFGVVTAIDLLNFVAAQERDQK
Method: Recombinant human CBS protein expression and purification. The expression and purification of human CBS was performed as described previously (Asimakopoulou et al. 2013, Br J Pharmacol. 169(4):922-32). Briefly, E. Coli BL21(DE3) Codon Plus cells (Stratagene, La Jolla, Calif., USA) containing the expression vector pGEX-Kg/GST-CBS were grown at 37° C. and 180 rpm in LuriaBertani (LB) broth medium containing 100 μg/ml ampicillin to an absorption of 0.6-0.8 at 600 nm. Protein expression was induced by addition of 0.1 mM IPTG (isopropyl-b-D-thiogalactopyranoside) and cells were further incubated at 30° C. overnight. The bacteria were harvested and sonicated in lysis buffer PBS (140 mM NaCl, 2.7 mM KCl, 10 mM Na2HPO4, 1.8 mM KH2PO4, pH 7.8) containing a protease inhibitors cocktail (Sigma). The protein lysate was loaded onto a GSTrap FF 1 ml affinity column (Amersham Biosciences) and the GST-CBS recombinant protein was eluted with the elution buffer (50 mM Tris-HCl, 10 mM reduced glutathione, pH 8.0) and then dialyzed and concentrated in 10 mM sodium phosphate buffer (pH 8.2) and DTT (1 mM).
Measurement of H2S production by recombinant CBS. The measurement of H2S production by recombinant CBS enzyme was performed as described (Asimakopoulou et al. 2013, Br J Pharmacol. 169(4):922-32). Briefly, each test consisted of a 100 μl reaction mixture in 50 mM sodium phosphate buffer pH 8.2 containing 1 μg of the purified human CBS enzyme, 0.01 mM pyridoxal-5′-phosphate (PLP), 10 mM L-cysteine and 0.5 mM homocysteine. […] The reaction was initiated by transferring the Eppendorf tubes from ice to a 37° C. shaking water bath. After 60 minutes of incubation at 37° C., the reaction was terminated by adding 1% ZnAc followed by 10% trichloroacetic acid. Subsequently, N,N-dimethylphenylendiamine sulfate (20 mM in 7.2 M HCl) and FeCl3 (30 mM in 1.2 M HCl) were added and the optical absorbance of the solutions was measured at 650 nm.

[3] = Aqueous solubility by HPLC analysis method; assay type: physicochemical; settings: in the form of HCl salt

Row | SMILES | activity at 100 µM [2] | melting point | Aqueous solubility compared with apigenin, result in words [3] | Aqueous solubility, saturated concentration [3] | Inhibitory Effect (%) on PSC proliferation [1] | inhibition at 5 µM [1] | inhibition at 10 µM [1] | inhibition at 20 µM [1] | Antiproliferative effect on PSC, result in words [1]
1 | COc1cc(OC)c2c(=O)cc(-c3ccc(OCCN4CCCCC4)cc3)oc2c1 [Compound 14, 5,7-Dimethoxy-2-(4-(2-piperidin-1-yl-ethoxy)phenyl)-chromen-4-one] | 129% | 79 to 80 °C | significantly improved solubility | 17.4 mg/mL | 64% | 45% | 64% | 97% | potent antiproliferative effects
2 | COc1cc(OC)c2c(=O)cc(-c3ccc(OCCN4CCCC4)cc3)oc2c1 [Compound 16, 5,7-Dimethoxy-2-(4-(2-pyrrolidin-1-yl-ethoxy)phenyl)-chromen-4-one] | 131% | 114 to 115 °C | significantly improved solubility | 13.7 mg/mL | 66% | 48% | 66% | 98% | potent antiproliferative effects
3 | O=c1cc(-c2ccc(OCCN3CCCC3)cc2)oc2cc(O)cc(O)c12 [Compound 39] | 99.6% | 228 to 229 °C |  |  |  | 2% | 71% | 90% | 
4 | COc1cc(OC)c2c(=O)cc(-c3ccc(OCCN4CCCC4=O)cc3)oc2c1 [Compound 13, 1-(2-(4-(5,7-Dimethoxy-4-oxo-4H-chromen-2-yl)phenoxy)ethyl)-pyrrolidin-2-one] | 108% | 115 to 116 °C |  |  |  | 7% | 14% | 33% | 
5 | COc1cc(OC)c2c(=O)cc(-c3ccc(OCC(O)CN4CCCC4)cc3)oc2c1 (centres unmarked) [Compound 25, 2-(4-(2-Hydroxy-3-pyrrolidin-1-yl-propoxy)phenyl)-5,7-dimethoxy-chromen-4-one] | 85.9% | 137 to 138 °C |  |  |  | 21% | 37% | 57% | 
6 | COc1cc(OC)c2c(=O)cc(-c3ccc(OCCBr)cc3)oc2c1 [Compound 7, 2-(4-(2-Bromoethoxy)phenyl)-5,7-dimethoxy-chromen-4-one] | 121% | 202 to 203 °C |  |  |  |  |  | 20% | slightly increased antiproliferative effects in comparison with 6
7 | COc1cc(OC)c2c(=O)cc(-c3ccc(-c4ccc(F)nc4)cc3)oc2c1 [Compound 33, 2-(4-(6-Fluoropyridin-3-yl)phenyl)-5,7-dimethoxy-chromen-4-one] | 107% | 209 to 210 °C |  |  |  |  | 6% | 19% | substantial loss of the activity
8 | COc1cc(OC)c2c(=O)cc(-c3ccc(OC4CCNCC4)cc3)oc2c1 [Compound 19, 5,7-Dimethoxy-2-(4-(piperidin-4-yloxy)-phenyl)-chromen-4-one] | 115% | 205 to 206 °C |  |  |  |  | 21% |  | 

Continued, in another order:

Row | activity at 100 µM [2] | melting point | Aqueous solubility compared with apigenin, result in words [3] | Aqueous solubility, saturated concentration [3] | SMILES | Inhibitory Effect (%) on PSC proliferation [1] | inhibition at 5 µM [1] | inhibition at 10 µM [1] | inhibition at 20 µM [1] | Antiproliferative effect on PSC, result in words [1]
9 | 119% | 165 to 166 °C |  |  | COc1cc(OC)c2c(=O)cc(-c3ccc(OCCN)cc3)oc2c1 [Compound 20, 2-(4-(2-Aminoethoxy)-phenyl)-5,7-dimethoxy-chromen-4-one] |  | 6% | 35% | 70% | 
10 | 106% | 116 to 117 °C |  |  | CCN(CC)CCOc1ccc(-c2cc(=O)c3c(OC)cc(OC)cc3o2)cc1 [Compound 17, 2-(4-(2-Diethylaminoethoxy)-phenyl)-5,7-dimethoxy-chromen-4-one] |  | 33% | 60% | 72% | 
11 | 117% | 92 to 93 °C |  |  | COc1cc(OC)c2c(=O)cc(-c3ccc(OCC(O)CN(C)C)cc3)oc2c1 (centres unmarked) [Compound 26, 2-(4-(3-Dimethylamino-2-hydroxypropoxy)-phenyl)-5,7-dimethoxy-chromen-4-one] |  | 42% | 60% | 71% | 
12 | 112% | 159 to 160 °C |  |  | COc1cc(OC)c2c(=O)cc(-c3ccc(NCCN(C)C)cc3)oc2c1 [Compound 36, 2-(4-(2-Dimethylaminoethylamino)phenyl)-5,7-dimethoxy-chromen-4-one] |  | 30% | 60% | 84% | 
13 | 125% | 153 to 154 °C |  |  | COc1cc(OC)c2c(=O)cc(-c3ccc(OCCN(C)C)cc3)oc2c1 [Compound 10, 2-(4-(2-Dimethylaminoethoxy)phenyl)-5,7-dimethoxy-chromen-4-one] | 51% | 19% | 51% | 65% | 
